In patent US9365489B2, “Nitrooxy alkanoic acids and derivatives thereof in feed for reducing methane emission in ruminants, and/or to improve ruminant performance” (priority 2009, dated 2016):

What was measured:
methanogenic archaea = assay: In vivo test: qPCR of methanogenic archaea in rumen contents; settings: rumen of sheep; for Methanogenic archaea, log10: control 3.59; for Methanogenic archaea concentration: control 5.60 × 10^3
Text: (§1) The experimental design consisted of a cross-over design with 2 sheep per treatment in each period. The trial consisted in 3 consecutive periods of: 14 days of adaptation to the dose plus three consecutive days of methane measurements in chambers. This 14 days adaptation phase was established as the period necessary for wash out between different doses assayed in consecutive periods. During the last two days of methane measurements in chambers rumen contents samples were collected two hours after the morning feeding, sub sampled and immediately frozen prior DNA extraction and determination of volatile fatty acids and ammonia nitrogen concentration. Experimental animals were randomly allocated in three sub-groups of 2 animals and were assigned one of the three treatments (control, dose 1 and dose 2). The 3 sub-groups started the adaptation period with a gap of three days so they had the same number of adaptation days prior to methane measurement in the chambers. Each animal was held in cages with constant access to fresh water. The diet provided to the animals consisted of alfalfa hay chopped at 15 to 20 cm and concentrate in a proportion 1:1 at approximately 1.1 times the energy requirements maintenance level (Prieto et al, 1990) plus mineral-vitamin supplement. Fresh matter intake was monitored daily for each animal throughout the trial. The diet was provided to animals in two equal meals at 9.00 h and 14.00 h.
(§2) Samples of rumen contents were freeze-dried and thoroughly mixed by physical disruption using a bead beater (Mini-bead Beater; BioSpec Products, Bartlesville, Okla., USA) before DNA extraction, which was performed from approximately 50 mg sample using the QIAamp® DNA Stool Mini Kit (Qiagen Ltd, West Sussex, UK) following the manufacturer's instructions with the modification that a higher temperature (95° C.) was used for lysis incubation. DNA samples were used as templates for quantitative real-time PCR (qPCR) amplification. The numbers of total bacteria, total protozoa and total methanogenic archaea were quantified by Real Time—PCR (qPCR).
(§3) Different primer sets were used to amplify 16S rRNA gene-targeted total bacteria (Maeda et al. FEMS Inmunology and Medical Microbiology 39, 81-86, 2003), and protozoa (Sylvester et al. Journal Dairy Science. 88, 2083-2095 2005). […] The amplification efficiency was evaluated for each pair of primers with the following program: 5 min cycle at 95° C., 40 cycles at 95° C. for 15 s, 60° C. for 30 s, 72° C. for 55 s and, 75° C. during 6 s for fluorescent emission measures. The melting curve was built by increasing temperature from 55° C. to 95° C. and reading were taken every 5° C. […] The absolute amount of bacteria, protozoa and methanogenic archaea expressed as the number of DNA copies, was determined by using standards. […]

protozoa (18SrRNA) = assay: In vivo test: qPCR of total protozoa in rumen contents; settings: rumen of sheep; for Total protozoa concentration: control 2.38 × 10^6; for Total protozoa, log10: control 6.35
Text: as §1, §2, §3

total bacteria (16SrRNA) = assay: In vivo test: qPCR of total bacteria in rumen contents; settings: rumen of sheep; for Total bacteria concentration: control 1.19 × 10^9; for Total bacteria, log10: control 9.03
Text: as §1, §2, §3

## CCOC(=O)CCO[N+](=O)[O-] [Ethyl-3-nitrooxy propionate]
Methanogenic archaea; Dose 1 (50 mg/animal per day)
  Methanogenic archaea, log10: 3.57 log10
  Methanogenic archaea concentration: 5.43 × 10^3 copy gene numbers/g fresh matter
Methanogenic archaea; Dose 2 (500 mg/animal per day)
  Methanogenic archaea, log10: 3.45 log10
  Methanogenic archaea concentration: 4.34 × 10^3 copy gene numbers/g fresh matter
Protozoa (18SrRNA); Dose 1 (50 mg/animal per day)
  Total protozoa concentration: 2.08 × 10^6 copy gene numbers/g fresh matter
  Total protozoa, log10: 6.28 log10
Protozoa (18SrRNA); Dose 2 (500 mg/animal per day)
  Total protozoa concentration: 2.77 × 10^6 copy gene numbers/g fresh matter
  Total protozoa, log10: 6.43 log10
Total bacteria (16SrRNA); Dose 1 (50 mg/animal per day)
  Total bacteria concentration: 1.43 × 10^9 copy gene numbers/g fresh matter
  Total bacteria, log10: 9.08 log10
Total bacteria (16SrRNA); Dose 2 (500 mg/animal per day)
  Total bacteria concentration: 1.63 × 10^9 copy gene numbers/g fresh matter
  Total bacteria, log10: 9.18 log10
